Among the data in ChEMBL document CHEMBL5729067, “Phenylacetamides as inhibitors of rock” (2022) are IC50 values, retold here.

The target in the test is Rho-associated protein kinase 2 (Homo sapiens, UniProt O75116). Kind of test: In Vitro Assay: The effectiveness of compounds of the present invention as ROCK inhibitors can be determined in a 30 μL assay containing 20 mM HEPES, pH 7.5, 20 mM MgCl2, 0.015% Brij-35, 4 mM DTT, 5 μM ATP and 1.5 μM peptide substrate (FITC-AHA-AKRRRLSSLRA-OH) (SEQ ID No. 1). Compounds were dissolved in DMSO so that the final concentration of DMSO was <2%, and the reaction was initiated with Rho kinase variants. After incubation, the reaction was terminated by the addition of EDTA and the phosphorylated and non-phosphorylated peptides separated using a LABCHIP® 3000 Reader (Caliper Life Sciences). […] Compounds were tested in dose-response format, and the inhibition of kinase activity was calculated at each concentration of compound. The inhibition data were fit using a curve-fitting program to determine the IC50; i.e., the concentration of compound required to inhibit 50% of kinase activity.
Chain of Rho-associated protein kinase 2 (O75116 whole entry, looked up, change not shown): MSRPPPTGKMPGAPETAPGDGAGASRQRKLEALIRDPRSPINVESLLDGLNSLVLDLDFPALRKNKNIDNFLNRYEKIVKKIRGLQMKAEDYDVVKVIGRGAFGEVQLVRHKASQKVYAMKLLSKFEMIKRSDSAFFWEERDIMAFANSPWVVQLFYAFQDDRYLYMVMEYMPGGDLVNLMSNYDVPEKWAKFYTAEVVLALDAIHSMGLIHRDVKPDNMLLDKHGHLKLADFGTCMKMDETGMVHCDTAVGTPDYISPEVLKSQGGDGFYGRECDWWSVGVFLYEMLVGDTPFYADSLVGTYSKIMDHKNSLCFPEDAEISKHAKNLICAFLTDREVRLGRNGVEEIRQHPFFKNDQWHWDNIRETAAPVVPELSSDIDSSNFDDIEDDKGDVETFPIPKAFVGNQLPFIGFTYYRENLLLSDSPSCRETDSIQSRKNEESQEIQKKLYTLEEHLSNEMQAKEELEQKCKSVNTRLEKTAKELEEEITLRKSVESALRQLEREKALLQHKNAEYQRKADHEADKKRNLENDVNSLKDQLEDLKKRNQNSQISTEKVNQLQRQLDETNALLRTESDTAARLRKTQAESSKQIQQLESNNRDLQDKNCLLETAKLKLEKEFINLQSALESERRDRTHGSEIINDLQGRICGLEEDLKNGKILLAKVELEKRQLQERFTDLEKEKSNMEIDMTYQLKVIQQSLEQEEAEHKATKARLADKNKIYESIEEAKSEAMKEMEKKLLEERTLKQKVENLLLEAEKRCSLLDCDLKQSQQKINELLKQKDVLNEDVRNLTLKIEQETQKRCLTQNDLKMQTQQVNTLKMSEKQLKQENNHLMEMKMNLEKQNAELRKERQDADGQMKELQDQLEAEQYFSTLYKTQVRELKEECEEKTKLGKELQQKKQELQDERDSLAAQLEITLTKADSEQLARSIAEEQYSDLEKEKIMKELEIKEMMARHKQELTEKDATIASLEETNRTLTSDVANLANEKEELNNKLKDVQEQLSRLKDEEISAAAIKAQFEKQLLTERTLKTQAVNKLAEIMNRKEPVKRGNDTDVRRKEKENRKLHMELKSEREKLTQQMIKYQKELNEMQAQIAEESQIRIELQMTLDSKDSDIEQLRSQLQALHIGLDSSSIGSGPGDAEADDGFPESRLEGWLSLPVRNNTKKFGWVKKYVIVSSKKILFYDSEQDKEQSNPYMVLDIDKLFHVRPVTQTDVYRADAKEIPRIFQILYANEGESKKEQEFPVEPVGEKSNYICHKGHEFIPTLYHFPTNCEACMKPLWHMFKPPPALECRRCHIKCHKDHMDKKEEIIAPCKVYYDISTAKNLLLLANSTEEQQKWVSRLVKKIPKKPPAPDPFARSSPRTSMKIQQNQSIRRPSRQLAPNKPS

Usually IC50 stands for the concentration that gives 50% inhibition. Regarding `Cc1sc(C(=O)Cc2ccc(Oc3ncccc3C(N)=O)cc2)nc1-c1ccccc1`, the IC50 is 87 nM.
